Measured values: patent US20060148030A1, “Nuclear receptor err y 3” (FUJISAWA PHARMACEUTICAL CO., LTD, priority 2002, published 2006)

What was measured:
[1] = biological target: T1, ERβ (Homo sapiens, UniProt Q92731); assay: Reporter gene assay, ERRγ3 coexisted with ERβ in CV-1 cells; type: cell-based
T1 construct: expressed in transfected cells; host or cells: CV-1 (African green monkey kidney)

[2] = biological target: T2, GR (Homo sapiens, UniProt P04150); assay: Reporter gene assay, ERRγ3 coexisted with GR, pGRE-luc in CV-1 cells; type: cell-based; details: 10^−5 M dexamethasone
T2 construct: expressed in transfected cells; host or cells: CV-1 (African green monkey kidney)
T2 sequence (P04150 1-777): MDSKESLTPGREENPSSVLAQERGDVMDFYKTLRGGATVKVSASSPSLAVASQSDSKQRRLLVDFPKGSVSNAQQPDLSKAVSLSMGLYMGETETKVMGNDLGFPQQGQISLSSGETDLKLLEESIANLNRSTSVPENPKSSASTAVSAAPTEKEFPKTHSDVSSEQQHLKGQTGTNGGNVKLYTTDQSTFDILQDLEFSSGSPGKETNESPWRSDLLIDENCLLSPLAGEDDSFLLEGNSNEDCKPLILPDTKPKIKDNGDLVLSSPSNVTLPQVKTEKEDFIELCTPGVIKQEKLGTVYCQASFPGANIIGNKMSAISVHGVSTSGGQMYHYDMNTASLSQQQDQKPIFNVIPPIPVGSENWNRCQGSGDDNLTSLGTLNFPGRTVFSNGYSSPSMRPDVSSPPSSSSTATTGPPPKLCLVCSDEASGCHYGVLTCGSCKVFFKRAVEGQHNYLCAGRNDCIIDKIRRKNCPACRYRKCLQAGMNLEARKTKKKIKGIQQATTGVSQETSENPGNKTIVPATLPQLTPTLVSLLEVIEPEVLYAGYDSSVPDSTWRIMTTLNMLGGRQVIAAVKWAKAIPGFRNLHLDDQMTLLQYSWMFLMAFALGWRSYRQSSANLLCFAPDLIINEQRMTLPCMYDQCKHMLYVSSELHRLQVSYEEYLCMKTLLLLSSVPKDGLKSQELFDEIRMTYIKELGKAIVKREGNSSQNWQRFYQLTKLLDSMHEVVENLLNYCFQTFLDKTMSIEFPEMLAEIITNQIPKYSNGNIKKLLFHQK
Method: Transfection was performed as follows: CV-1 cells were resuspended in DMEM supplemented with 10% fetal bovine serum, 2000 U/l of penicillin G, and 100 mg/l of streptomycin to a concentration of 2×10^5 cells/2.5 ml. This was then seeded to a 6-well plate at 2.5 ml per well, and incubated for 18-24 hours in a CO2 incubator at 37° C. and 5% CO2. 1 μg of each of the expression plasmids for the transcription factors, the luciferase reporter plasmid, and another luciferase reporter plasmid used for normalization of the measured values (pRL-TK), were dissolved in Opti-MEM (Gibco BRL), to a total of 150 μl. 7 μl of the transfection reagent LipofectAMINE 2000 (Gibco BRL) was diluted in 143 μl of Opti-MEM, and this was added to the mixture drop by drop while stirring. The mixture was incubated for 20 minutes. […] Luciferase activity was measured using the Dual-Luciferase™ Reporter Assay System (Promega). […] The protocol for measurement was as follows: 50 μl of Luciferase Assay Reagent II was added to each well, stirred for 0.3 seconds, and measured for one second. 50 μl of Stop&Glo™ Reagent was then added, stirred for 0.3 seconds, and measured for one second. The measured values for firefly luciferase activity were corrected by dividing by the value for the Renilla luciferase activity, the internal control. Average values and standard errors were calculated from triplicate samples. […]

T1 sequence (Q92731 whole entry): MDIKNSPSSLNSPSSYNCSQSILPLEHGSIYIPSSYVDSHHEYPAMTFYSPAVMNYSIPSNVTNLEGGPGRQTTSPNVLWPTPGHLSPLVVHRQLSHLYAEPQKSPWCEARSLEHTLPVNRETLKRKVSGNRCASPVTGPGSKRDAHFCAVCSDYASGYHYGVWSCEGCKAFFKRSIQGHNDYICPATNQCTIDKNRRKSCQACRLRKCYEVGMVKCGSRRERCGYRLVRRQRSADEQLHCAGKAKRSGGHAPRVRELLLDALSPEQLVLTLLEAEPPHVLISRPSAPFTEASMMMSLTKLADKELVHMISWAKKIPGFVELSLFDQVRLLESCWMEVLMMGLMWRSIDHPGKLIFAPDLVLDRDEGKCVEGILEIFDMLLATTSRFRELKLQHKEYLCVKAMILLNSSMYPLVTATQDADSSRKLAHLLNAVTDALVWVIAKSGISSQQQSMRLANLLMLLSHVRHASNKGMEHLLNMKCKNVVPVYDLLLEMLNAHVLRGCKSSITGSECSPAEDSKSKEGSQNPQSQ

## 4-hydroxytamoxifen [reference compound]
[1]; 10^−5 M (R)-estradiol present
  effect of 4-hydroxytamoxifen on the enhancing function of ERRγ3 on ERβ: no function-enhancing effect
[2]; 10^−5 M 4-hydroxytamoxifen, FIG. 25B
  effect of 4-hydroxytamoxifen on the inhibitory function of ERRγ3 on GR: reduced ERRγ3's inhibitory function

B1: ERRγ3: novel ERRγ isoform, nuclear receptor protein of 396 amino acids (SEQ ID NO: 2) lacking part of the DNA binding domain (protein, listed as Homo sapiens)
chain: MSNKDRHIDSSCSSFIKTEPSSPASLTDSVNHHSPGGSSDASGSYSSTMNGHQNGLDSPPLYPSAPILGGSGPVRKLYDDCSSTIVEDPQTKCEYMLNSMPKRLCLVCGDIASGYHYGVASCEACKAFFKRTIQGVRLDRVRGGRQKYKRRIDAENSPYLNPQLAQPAKKPYNKIVSHLLVAEPEKIYAMPDPTVPDSDIKALTTLCDLADRELVVIIGWAKHIPGFSTLSLADQMSLLQSAWMEILILGVVYRSLSFEDELVYADDYIMDEDQSKLAGLLDLNNAILQLVKKYKSMKLEKEEFVTLKAIALANSDSMHIEDVEAVQKLQDVLHEALQDYEAGQHMEDPRRAGKMLMTLPLLRQTSTKAVQHFYNIKLEGKVPMHKLFLEMLEAKV
[1]; ERRγ3 with ERβ, 10^−5 M (R)-estradiol, FIG. 17
  function enhancement of the transcription-controlling activity of ERβ: 600-650%
[2]; FIG. 25
  effect of ERRγ3 on the transcriptional stimulation activity of GR: inhibited GR's transcriptional stimulation activity
